Assay results reported in US4374040A, “Aminoalkylenephosphonic acids and salts thereof and their use in aqueous systems” (Buckman Laboratories, Inc., priority 1980, dated 1983).

Legend:
[1] = Calcium Sulfate Antiprecipitation Tests; settings: pH 7, 18 hours, 50° C.
Procedure: Inhibition of calcium sulfate precipitation by the aminoalkylenephosphonic acids of this invention was evaluated by adding the desired volumes of stock solutions of the phosphonic acids or their sodium salts (prepared with demineralized water) to 10-ml. aliquots of a calcium chloride solution containing 162.9 g. of CaCl2 per liter. The volume of each was made up to 175 ml. with demineralized water, and the pH was adjusted to 7.0 with dilute NaOH or HCl. A 25-ml. aliquot of a sodium sulfate solution (83.84 g. Na2 SO4 per liter) was then added to each. The test solutions were maintained for 18 hours at a temperature of 50° C. A portion of each was filtered while still hot to remove insoluble materials and the filtrate was analyzed for calcium by means of an atomic absorption instrument. The percent inhibition was calculated and the results are included in Table 2.

[2] = Calcium Carbonate Antiprecipitation Tests; settings: 18 hours, 25° C.
Procedure: To evaluate the effect of the aminoalkylenephosphonic acids of this invention on the precipitation of calcium carbonate, measured volumes of stock solution (prepared with demineralized water) of the phosphonic acids or their sodium salts were added to 100 ml. portions of a calcium chloride solution (0.2936 g. CaCl2.2H2 O per 100 ml. of solution). Then 100 ml. of a sodium bicarbonate solution (0.168 g. NaHCO3 per 100 ml. of solution) was added to each portion of calcium chloride solution. The test solutions were then agitated on a gyratory shaker table for 18 hours at a temperature of 25° C. At the end of this time, insoluble material was removed by filtration through a Millipore membrane filter, and the calcium ion concentration in the filtrate was determined with an atomic absorption spectrophotometer. […] The compounds tested were as follows:
A. Tetrahydro-N,N-bis(phosphonomethyl)-3-thiophenamine 1,1-dioxide (30 percent)
B. Thirty percent solution of the trisodium salt of A
D. Tetrahydro-N,N,N',N'-tetrakis(phosphonomethyl)-3,4-thiophenediamine 1,1-dioxide (30 percent)
E. 3-Hydrazinotetrahydro-N,N-bis(phosphonomethyl)thiophene 1,1-dioxide (30 percent)
F. Tetrahydro-N-(2-hydroxyethyl)-N-(phosphonomethyl)-3-thiophenamine 1,1-dioxide (30 percent)

[3] = Barium Sulfate Antiprecipitation Tests; settings: pH 7; for Percent inhibition of barium sulfate precipitation: 18 hours, 25° C.
Procedure: To evaluate the effect of the aminoalkylenephosphonic acids of this invention in inhibiting the precipitation of barium sulfate, the desire volumes of stock solutions of the phosphonic acids or their sodium salts (prepared with demineralized water) were added to 10-ml. aliquots of a barium chloride solution containing 5.35 g. BaCl2.H2 O per liter. The volume of each was made up to 175 ml. with demineralized water, and the pH was adjusted to 7.0 with dilute NaOH or HCl. A 25-ml. aliquot of a sodium sulfate solution (1.24 g. Na2 SO4 per liter) was then added to each. The test solutions were agitated on a gyratory shaker table for 18 hours at 25° C. At the end of this time, insoluble material was removed by filtration and the barium ion concentration was determined with an atomic absorption unit. The percent inhibition was calulated and the results are included in Table 3. Compound C was described in Example 15 and Compound H was described in Example 16. Compound I was an aqueous solution containing 22.5 percent of the trisodium salt of tetrahydro-N,N-bis(phosphonomethyl)-3-thiophenamine 1,1-dioxide and 7.5 percent of a poly(acrylic acid) having a molecular weight of about 4000. Compound J was an aqueous solution containing 7.5 percent of tetrahydro-N,N-bis(phosphononmethyl)-3-thiophenamine 1,1-dioxide and 22.5 percent of a poly(acrylic acid) having a molecular weight of about 4000. Since the percent inhibition results were lower that those obtainined in Examples 15 and 16, a well known scale inhibitor was included in this test for comparison.

Compound	Percent inhibition of calcium sulfate precipitation ([1]; 1 parts per million) [%]	Percent inhibition of calcium sulfate precipitation ([1]; 3 parts per million) [%]	Percent inhibition of calcium sulfate precipitation ([1]; 5 parts per million) [%]	Percent inhibition of calcium sulfate precipitation ([1]; 10 parts per million) [%]	Percent inhibition of calcium sulfate precipitation ([1]; 25 parts per million) [%]	Percent inhibition of calcium sulfate precipitation ([1]; 50 parts per million) [%]	percent inhibition of calcium carbonate precipitation ([2]; pH 8.5, 1 parts per million) [%]	percent inhibition of calcium carbonate precipitation ([2]; pH 8.5, 3 parts per million) [%]	percent inhibition of calcium carbonate precipitation ([2]; pH 8.5, 5 parts per million) [%]	percent inhibition of calcium carbonate precipitation ([2]; pH 8.5, 10 parts per million) [%]	percent inhibition of calcium carbonate precipitation ([2]; pH 8.5, 25 parts per million) [%]	percent inhibition of calcium carbonate precipitation ([2]; pH 8.5, 50 parts per million) [%]	percent inhibition of calcium carbonate precipitation ([2]; pH 9.0, 1 parts per million) [%]	percent inhibition of calcium carbonate precipitation ([2]; pH 9.0, 3 parts per million) [%]	percent inhibition of calcium carbonate precipitation ([2]; pH 9.0, 5 parts per million) [%]	percent inhibition of calcium carbonate precipitation ([2]; pH 9.0, 10 parts per million) [%]	percent inhibition of calcium carbonate precipitation ([2]; pH 9.0, 25 parts per million) [%]	percent inhibition of calcium carbonate precipitation ([2]; pH 9.0, 50 parts per million) [%]	other results
O=P(O)(O)CN(CCO)C1CCS(=O)(=O)C1 (centres unmarked) [F, Tetrahydro-N-(2-hydroxyethyl)-N-(phosphonomethyl)-3-thiophenamine 1,1-dioxide]	41	38	39	43	61	88	27	25	27	25	38	32							
O=P(O)(O)CN(CP(=O)(O)O)C1CS(=O)(=O)CC1N(CP(=O)(O)O)CP(=O)(O)O (centres unmarked) [D, Tetrahydro-N,N,N',N'-tetrakis(phosphonomethyl)-3,4-thiophenediamine 1,1-dioxide]							78	73	73	71	70	70							
O=P(O)(O)CN(CP(=O)(O)O)C1CCS(=O)(=O)C1 (centres unmarked) [B]	40	52	55	78	95	100	92	87	92	91	93	94	9	11	89	85	16	86	
O=P(O)(O)CN(CP(=O)(O)O)NC1CCS(=O)(=O)C1 (centres unmarked) [E, 3-Hydrazinotetrahydro-N,N-bis(phosphonomethyl)thiophene 1,1-dioxide]	38	38	38	38	40	45	82	82	77	79	100	91	78	79	79	79	70	86	
O=P(O)(O)CN(CP(=O)(O)O)C1CCS(=O)(=O)C1 (centres unmarked) [A, Tetrahydro-N,N-bis(phosphonomethyl)-3-thiophenamine 1,1-dioxide]							83	84	78	85	73	71							
O=P(O)(O)CN(CP(=O)(O)O)CP(=O)(O)O [Compound K, nitrilotris(methylenephosphonic acid)]																			Percent inhibition of barium sulfate precipitation ([3]; 5 parts per million): 5%; Percent inhibition of barium sulfate precipitation ([3]; 10 parts per million): 5%; Percent inhibition of barium sulfate precipitation ([3]; 25 parts per million): 6%; Percent inhibition of barium sulfate precipitation ([3]; 50 parts per million): 12%; effectiveness in inhibiting barium sulfate precipitation, compared with the combinations ([3]; in words): less than that of the combinations containing tetrahydro-N,N-bis(phosphonomethyl)-3-thiophenamine 1,1-dioxide
